The term IC50 denotes the midpoint of a concentration-inhibition curve.

In one assay the test system is HeLa cell line. To be noted: compared to the control drug ellipticine; Tunbridge et al., 2013; cited from earlier work.
The next assay relates to HeLa cells. The experiment in a line: Cell-based pharmacodynamic assay (CellTiter-Glo proliferation inhibition), HeLa. To be noted: human cervical cancer HeLa cells; 72 hours incubation; CellTiter-Glo luminescence; read-out: IC50 against HeLa cells. In a few lines: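 Cells seeded overnight in line-specific media with FBS, then dosed from DMSO stocks (20 mM stock) for 72 h at 37 °C, 5% CO2. Viability by CellTiter-Glo luminescence; inhibition normalised to DMSO and blank wells, IC50 from four-parameter fit.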
In general terms: ATP-based viability assays read luminescence as a measure of living cells.

Assay [1] is described as follows: Cell-based pharmacodynamic assay (CellTiter-Glo proliferation inhibition), tumor cell line panel. Particulars: Homo sapiens; one range stated for all 22 listed ovarian, liver, lung, melanoma, pancreatic, colorectal, renal, prostate, gastric, tongue, leukemia and rhabdomyosarcoma cell lines. As for the experimental part: Complete media such as RPMI 1640 (Gibco, A1049101), EMEM (ATCC, 30-2003), DMEM (Gibco, C11995500CP), McCoy's 5A (Gibco, 16600082), and F-12K (ATCC, 30-2004) were prepared by supplementing with varying concentrations of FBS (Biological Industries, 04-002-1A) and 1% Penicillin-Streptomycin (Gibco, 15140122) and was thoroughly mixed. Tumor cell lines including HeLa (ATCC, CCL-2; EMEM + 10% FBS), TOV-21G (Cobioer, CBP60292; 1:1 mixture of MCDB 105 and Medium 199 + 15% FBS), OVCAR-3 (ATCC, HTB-161; RPMI 1640 + 20% FBS + 0.01 mg/ml bovine insulin), SK-OV-3 (ATCC, HTB-77; McCoy's 5A + 10% FBS), A2780 (Cobioer, CBP60283; RPMI 1640 + 10% FBS), OC316 (Cobioer, CBP60620; RPMI 1640 + 10% FBS), HuH-7 (Cobioer, CBP60202; DMEM + 10% FBS), SNU-398 (ATCC, CRL-2233; RPMI 1640 + 10% FBS), NCI-H2286 (ATCC, CRL-5938; RPMI 1640 + 5% FBS), NCI-H82 (ATCC, HTB-175; RPMI 1640 + 10% FBS), A549 (ATCC, CCL-185; F-12K + 10% FBS), SK-MEL-3 (ATCC, HTB-69; McCoy's 5A + 15% FBS), PSN-1 (Cobioer, CBP61215; RPMI 1640 + 10% FBS), LoVo (ATCC, CCL-229; F-12K + 10% FBS), DLD-1 (ATCC, CCL-221; RPMI 1640 + 10% FBS), HCT-15 (ATCC, CCL-225; RPMI 1640 + 10% FBS), A498 (ATCC, HTB-44; EMEM + 10% FBS), LNCaP (ATCC, CRL-1740; RPMI 1640 + 10% FBS), SNU-1 (ATCC, CRL-5971; RPMI 1640 + 10% FBS), SCC-9 (Cobioer, CBP60428; DMEM/F12 (1:1) + 10% FBS + 0.5 mM sodium pyruvate + 400 ng/ml hydrocortisone), SU-DHL-5 (ATCC, CRL-2958; RPMI 1640 + 10% FBS), Toledo (ATCC, CRL-2631; RPMI 1640 + 10% FBS), and SJCRH30 (ATCC, CRL-2061; RPMI 1640 + 10% FBS) were thawed. Cells were passaged approximately twice, and those in good growth condition (typically passages 4-6) were selected for experiments. The medium was aspirated, and the cells were washed once with 0.25% trypsin (Invitrogen, 25200-072). The waste liquid was discarded, and 3 mL of fresh trypsin was added to the culture flask for digestion. […] The plates were placed in an Enspire reader (luminescence measurement time: 0.5 s) to record luminescence results. […]

With `COc1cc2c(c(N)c1OC)C(=O)/C(=C\c1cc(C)c(O)c(C)c1)C2` [indanocine], the “inhibitory activity against the HeLa cell line” value with HeLa cell line is “superior inhibitory activity”. Consider `CCCCCC(=O)n1c2c(c3c(C(=O)OCC)cccc31)CCCC2=O` [Compound C05], for which the IC50 is no more than 200 nM in the assay on HeLa cells and 200 to 10000 nM in assay [1]. As to `CCOC(=O)c1cccc2[nH]c3c(c12)CCCC3=O` [Compound B16], the IC50 was no more than 200 nM in the assay on HeLa cells and 200 to 10000 nM in assay [1].

As for `O=C1CCCc2c1[nH]c1cccc(C(=O)OC3CC(O)C3)c21` (centres unmarked) [Compound B129], the IC50 in the assay with HeLa cells was no more than 200 nM.

For the compound `O=C1CCCc2c1[nH]c1cccc(C(=O)OC3CC(F)C3)c21` (centres unmarked) [Compound B139], in the assay with HeLa cells, the IC50 was no more than 200 nM. The same measure, in the same setting: in the case of `O=C1CCCc2c1[nH]c1cccc(C(=O)OC3CCC(O)C3)c21` (centres unmarked) [Compound B177] it was no more than 200 nM.

In the case of `COC(=O)c1cccc2[nH]c3c(c12)CCCC3=NC(C)C(F)(F)F` (centres unmarked) [Compound E70], in the assay with HeLa cells, the IC50 is no more than 200 nM. The same measure, in the same setting: in the case of `COC(=O)c1cccc2[nH]c3c(c12)CCCC3=NCC(O)CO` (racemic) [Compound E59] it was no more than 200 nM. As for `COC(=O)c1cccc2[nH]c3c(c12)CCC3=O` [Compound B51], the IC50 with HeLa cells is no more than 200 nM. Same read-out and setting: the figure for `CCOC(=O)c1cccc2c1c1c(n2C(=O)CCCCCN)C(=O)CCC1` [Compound C42] is no more than 200 nM. Still for that read-out and setting: the figure for `CCn1cc(-c2cccc3[nH]c4c(c23)CCCC4=O)cn1` [Compound B155] is no more than 200 nM. For the compound `Cc1ccc2[nH]c3c(c2c1)CCCC3=NC(C)C(=O)OC(C)(C)C` (centres unmarked) [Compound E44], in the assay with HeLa cells, the IC50 was no more than 500 nM. As to `Cc1ccc2[nH]c3c(c2c1)C(C)CCC3=NCCO` (single isomer, unassigned) [Compound E41], in the assay with HeLa cells, the IC50 is no more than 500 nM. As to `Cc1ccc2[nH]c3c(c2c1)CCCC3=NC(CC(N)=O)C(=O)OC(C)(C)C` (centres unmarked) [Compound E39], in the assay on HeLa cells, the IC50 is no more than 200 nM.

For the compound `CCOCCOCC(=O)n1c2c(c3c(C(=O)OCC)cccc31)CCCC2=O` [Compound C44], the IC50 in the assay on HeLa cells was no more than 200 nM. For `Cn1ncc(-c2cccc3[nH]c4c(c23)CCCC4=O)n1` [Compound B67], the IC50 was no more than 200 nM in the assay on HeLa cells and 200 to 10000 nM in assay [1]. For `COC(=O)c1cccc2[nH]c3c(c12)CCCC3=NC(CO)C(C)C` (racemic) [Compound E60], the IC50 with HeLa cells is no more than 200 nM. On the same count and under the same terms, in the case of `CCn1ncc(-c2cccc3[nH]c4c(c23)CCCC4=O)n1` [Compound B123] it was no more than 200 nM. With `O=C1CCCc2c1[nH]c1cccc(-c3cn[nH]c3)c21` [Compound B58], in the assay on HeLa cells, the IC50 is no more than 200 nM. The same measure, in the same setting: the figure for `CCOC(=O)c1cccc2[nH]c3c(c12)CCC(NCCO)C3=O` (racemic) [Compound B131] is no more than 500 nM; for `CCOC(=O)c1cccc2c1c1c(n2C(=O)/C=C/c2ccc(O)c(OC)c2)C(=O)CCC1` [Compound C29] it is no more than 200 nM; for `Cc1ccc2[nH]c3c(c2c1)CCCC3=NC(CO)CO` [Compound E14] it is no more than 200 nM. On the same count and under the same terms, the figure for `CCOC(=O)c1cccc2c1c1c(n2C(=O)C2(F)CCOCC2)C(=O)CCC1` [Compound C49] is no more than 200 nM; for `Cc1ccc2[nH]c3c(c2n1)CCCC3=O` [Compound B01] it is no more than 200 nM; for `O=C1CCCc2c1[nH]c1cccc(N3CCOCC3)c21` [Compound B63] it is no more than 200 nM. On the same count and under the same terms, in the case of `O=C1CCCc2c1[nH]c1cccc(N3CCn4cnnc4C3)c21` [Compound B19] it was no more than 200 nM; in that of `COc1ccc(Cn2nnc(-c3cccc4[nH]c5c(c34)CCCC5=O)n2)cc1` [Compound B94], no more than 500 nM. Consider `O=C1CCCc2c1[nH]c1cccc(N3CC[C@@H](CO)C3)c21` [Compound B193], for which the IC50 in the assay with HeLa cells is no more than 200 nM. Same read-out and setting: the figure for `CC(C)(C)OC(=O)c1cccc2[nH]c3c(c12)CCCC3=O` [Compound B55] is no more than 200 nM. Still for that read-out and setting: in the case of `CC(C)OC(=O)c1cccc2[nH]c3c(c12)CCCC3=O` [Compound B17] it was no more than 200 nM; in that of `CCOC(=O)c1cccc2c1c1c(n2C(=O)/C=C/c2ccc(OC)c(OC)c2)C(=O)CCC1` [Compound C59], no more than 200 nM; in that of `Cc1ccc2[nH]c3c(c2c1)CCCC3=NCC(=O)OC(C)(C)C` [Compound E10], no more than 200 nM. On the same count and under the same terms, the figure for `COCCN=C1CCCc2c1[nH]c1ccc(C)cc21` [Compound E45] is no more than 200 nM; for `CN(C)c1cccc2[nH]c3c(c12)CCCC3=O` [Compound B65] it is no more than 200 nM.

Regarding `N#CC1(COC(=O)c2cccc3[nH]c4c(c23)CCCC4=O)CC1` [Compound B175], the IC50 in the assay with HeLa cells is no more than 500 nM. Same read-out and setting: the figure for `COC(=O)c1c(F)ccc2[nH]c3c(c12)CCCC3=O` [Compound B85] is no more than 200 nM; for `Cc1nn(C)cc1-c1cccc2[nH]c3c(c12)CCCC3=O` [Compound B180] it is no more than 500 nM; for `CCOC(=O)c1cccc2c1c1c(n2C(=O)c2ccc(F)cc2)C(=O)CCC1` [Compound C19] it is no more than 200 nM. Same read-out and setting: the figure for `CCOC(=O)c1cccc2c1c1c(n2C(=O)C(CO)c2ccccc2)C(=O)CCC1` (racemic) [Compound C48] is no more than 200 nM; for `CC(OC(=O)c1cccc2[nH]c3c(c12)CCCC3=O)C(F)(F)F` (racemic) [Compound B44] it is no more than 200 nM; for `[2H]C([2H])([2H])C([2H])([2H])OC(=O)c1cccc2[nH]c3c(c12)CCCC3=O` [Compound B116] it is no more than 200 nM.

Regarding `CCC(=O)Oc1cccc2[nH]c3c(c12)CCCC3=O` [Compound B32], the IC50 with HeLa cells was no more than 500 nM.

Regarding `O=C1CCCc2c1[nH]c1cccc(-c3ccccc3)c21` [Compound B48], in the assay on HeLa cells, the IC50 was no more than 500 nM. Same read-out and setting: the figure for `Cc1ccc2[nH]c3c(c2c1)CCC/C3=N\[C@@H](Cc1ccccc1)C(=O)OC(C)(C)C` [Compound E38] is no more than 200 nM. Same read-out and setting: the figure for `CCC(CO)N=C1CCCc2c1[nH]c1ccc(C)cc21` (centres unmarked) [Compound E63] is no more than 500 nM; for `Cn1cc(-c2cccc3c2c2c(n3C(=O)C3CC(F)(F)C3)C(=O)CCC2)cn1` [Compound C60] it is no more than 200 nM. In the case of `CN(C)S(=O)(=O)c1cccc2[nH]c3c(c12)CCCC3=O` [Compound B76], in the assay with HeLa cells, the IC50 is no more than 200 nM.
